Results: the SangsterLogP compilation

Assay: method code SF-HPLC, from PMID: 1388632
Conditions: pH 7.4

| logD | Structure (SMILES) |
| --- | --- |
| 2.81 | CC(=O)OCc1c2c(n3c1CCC3)C(=O)C(C)=C(C(C)=O)C2=O |
| 4 | CCCC(=O)OCc1c2c(n3c1C(OC(=O)CCC)CC3)C(=O)C(C)=C(C(C)=O)C2=O (centres undefined) |
| 0.37 | CC(=O)C1=CC(=O)c2c(c(CO)c3n2CCCC3O)C1=O (centres undefined) |
| 1.83 | CCNC(=O)OCc1c2c(n3c1C(O)CC3)C(=O)C(C)=C(OC)C2=O (centres undefined) |
| 0.89 | CC(=O)OCc1c2c(n3c1C(O)CCC3)C(=O)C=C(C(C)=O)C2=O (centres undefined) |
| 1.15 | CC(=O)OCc1c2c(n3c1C(OC(C)=O)CC3)C(=O)C=C(C(C)=O)C2=O (centres undefined) |
| 1.14 | CC(=O)C1=C(C)C(=O)c2c(c(CO)c3n2CCC3O)C1=O (centres undefined) |
| -0.09 | CC(=O)C1=CC(=O)c2c(c(CO)c3n2CCC3O)C1=O (centres undefined) |

| Structure (SMILES) | logD |
| --- | --- |
| CC(=O)OCc1c2c(n3c1C(OC(C)=O)CC3)C(=O)C(C)=C(N1CC1)C2=O (centres undefined) | 1.75 |
